Assay results: patent US11096985B2, “Antimicrobial peptides, their variants and uses” (priority 2015, dated 2021)
Values after ≈ are worked out from the molar mass of the structure shown. Where a SMILES comes first, the peptide text is derived from it. [ ]: non-standard residue; d: D form.

Legend:
[1] = test system: clinical strains of Candida albicans; experiment: MIC, clinical yeast strains, Candida albicans; format: cell-based; parameters: unit: μg/ml
Protocol: (§1) Minimum inhibition concentrations (MICs) were determined against Escherichia coli (ATCC 25922), Staphylococcus aureus (ATCC 25923), Klebsiella pneumoniae (ATCC 10031) and Pseudomonas aeruginosa (ATCC 27853). Also clinical strains of E. coli, K. pneumoniae, E. cloacae, P. aeruginosa, Serratia marcescens, Proteus mirabilis, S. pneumoniae, Acinetobacter baumannii, A. johnsonii and S. aureus were used for MICs assays. Additionally, clinical strains of yeast including Candida albicans, C. glabrata, C. parapsilosis and C. quillermondiae were used. The susceptibility of these microorganisms to Chain peptides were determined using micro broth dilution assay. Colonies of the respective microorganism from Muller Hinton (MH) agar plates incubated overnight were suspended in MH broth media and final concentration of microorganism was adjusted to 5.0×10^5 cfu/ml. An aliquot of 10 μl of each Chain peptide, or gentamicin, tetracycline as reference antibiotics were added in differing concentrations along with 90 μl of bacterial suspension to 96 well polypropylene plates and incubated at 37° C. for 20 to 24 hours. Concentrations of Chain peptides and reference antibiotics ranged from 0.125 to 128 μg/ml and the MICs were recorded as the lowest concentration with no visual growth of bacteria. Similarly, antifungal MICs were tested in Potato dextrose broth.
(§2) Clinical strains of yeasts including Candida albicans, C. glabrata, C. parapsilosis and C. quillermondiae were also tested with the 12 Chain peptides. The minimum inhibitory concentration (MICs) varied between these peptides and are presented in Tables 4a, 4b, 4c and 5a, 5b, 5c. Peptides Chain 105, 201 and 308 are broad spectrum antimicrobials with MICs between 0.5-32 μg/ml against all the bacteria and yeasts tested, except Serratia marcescens and Proteus mirabilis, against which the MICs were between 64-128 μg/ml. Peptide Chain 306 has narrow spectrum activity against E.coli at 1 μg/ml and for the rest of the bacterial strains at >32 μg/ml (FIG. 10).

[2] = test system: clinical strains of C. quillermondiae; experiment: MIC, clinical yeast strains, C. quillermondiae; format: cell-based; conditions: C. quillermondiae clinical yeast strain 1
Protocol: as §1, §2

[3] = test system: clinical strains of Acinetobacter johnsonii; format: cell-based
Protocol: as §1, §2

[4] = test system: clinical strains of C. parapsilosis; experiment: MIC, clinical yeast strains, C. parapsilosis; format: cell-based, Candida parapsilosis; parameters: unit: μg/ml
Protocol: as §1, §2

[5] = test system: clinical strains of C. glabrata; experiment: MIC, clinical yeast strains, C. glabrata; format: cell-based, Candida glabrata; parameters: unit: μg/ml
Protocol: as §1, §2

[6] = Candida albicans clinical yeast strain 1
[7] = Candida albicans clinical yeast strain 2
[8] = Candida albicans clinical yeast strain 3
[9] = Candida albicans clinical yeast strain 4
[10] = Candida albicans clinical yeast strain 5
[11] = C. parapsilosis clinical yeast strain 1
[12] = C. parapsilosis clinical yeast strain 2
[13] = C. parapsilosis clinical yeast strain 3
[14] = C. parapsilosis clinical yeast strain 4
[15] = C. glabrata clinical yeast strain 1
[16] = C. glabrata clinical yeast strain 2
[17] = C. glabrata clinical yeast strain 3
[18] = C. glabrata clinical yeast strain 4

SMILES | Minimum inhibitory concentration [1, 6] | Minimum inhibitory concentration [1, 7] | Minimum inhibitory concentration [1, 8] | Minimum inhibitory concentration [1, 9] | Minimum inhibitory concentration [1, 10] | Minimum inhibitory concentration [2] | Minimum inhibitory concentration, Acinetobacter johnsonii strain 1 [3] [µg/mL] | Minimum inhibitory concentration [4, 11] | Minimum inhibitory concentration [4, 12] | Minimum inhibitory concentration [4, 13] | Minimum inhibitory concentration [4, 14] | Minimum inhibitory concentration [5, 15] | Minimum inhibitory concentration [5, 16] | Minimum inhibitory concentration [5, 17] | Minimum inhibitory concentration [5, 18]
CC[C@@H](C)[C@@H](NC(=O)[C@@H](CCSC)NC(=O)[C@@H](C)NC(=O)[C@@H](CCCNC(=N)N)NC(=O)[C@@H](Cc1c[nH]c2ccccc12)NC(=O)[C@@H](CCCCN)NC(=O)[C@H](N)CCCNC(=N)N)C(=O)N[C@H](CCCNC(=N)N)C(=O)N[C@H](CC(C)C)C(=O)N[C@H](Cc1c[nH]cn1)C(=O)N[C@H](C)C(=O)N[C@H](CCCCN)C(=O)N[C@H](CCCNC(=N)N)C(=O)N[C@H](CC(C)C)C(=O)N[C@H](CCCNC(=N)N)C(=O)N[C@H](CCCCN)C(=O)O [Chain104D] (H-[dR][dK][dW][dR][dA][dM][dI][dR][dL][dH][dA][dK][dR][dL][dR][dK]-OH) | 8 | 8 | 8 | 8 | 8 | 4 | 8 (≈ 3.77 µM) | 4 | 4 | 4 | 2 | 8 | 8 | 8 | 16
CC[C@@H](C)[C@@H](NC(=O)[C@@H](CCSC)NC(=O)[C@@H](C)NC(=O)[C@@H](CCCNC(=N)N)NC(=O)[C@@H](Cc1c[nH]c2ccccc12)NC(=O)[C@@H](CCCCN)NC(=O)[C@H](N)CCCNC(=N)N)C(=O)N[C@H](CCCNC(=N)N)C(=O)N[C@H](CC(C)C)C(=O)N[C@H](Cc1c[nH]cn1)C(=O)N[C@H](C)C(=O)N[C@H](CCCCN)C(=O)N[C@H](Cc1c[nH]c2ccccc12)C(=O)N[C@H](CC(C)C)C(=O)N[C@H](CCCNC(=N)N)C(=O)N[C@H](CCCCN)C(=O)O [Chain105D] (H-[dR][dK][dW][dR][dA][dM][dI][dR][dL][dH][dA][dK][dW][dL][dR][dK]-OH) | 32 | 16 | 32 | 32 | 32 | 8 | 4 (≈ 1.86 µM) | 8 | 8 | 8 | 4 | 16 | 16 | 8 | 32
